For series [1], the system named is locomotion activity induced by cocaine. Description: Locomotion activity (open field test) of cocaine induced mice. It is filed as in vivo. The settings on record: compound 10 mg/kg 10 mins before cocaine 25 mg/kg i.p.; FIGS. 12A to 12C. From the text:
8 mice from Preparation Example 2 were randomly chosen to conduct Locomotion Activity I. The open fields using white acrylic chambers measured 50 cm (length)×50 cm (width)×38 cm (height) were made from white high density and non-porous plastics. Once the Video Tracking software (ANY-maze, Stoelting Co, IL, USA) was opened, the cursor was moved to the “Single-Subject Tracking” option located under the “Data Acquisition” tab and single-clicked to open this option. The software package used in this protocol allows the tracking of up to 6 individual mice at one time. The mice were brought to open fields to acclimate to the procedure room for 30 minutes (min) prior to starting the test. The tracking plot of randomly chosen 6 mice was recorded and analyzed by ANY-maze software.
(§1) Conditioned place preference (CPP) is a classical conditioning paradigm used in behavioral neuroscience to study the rewarding and aversive properties of drugs or other stimuli. It involves associating a particular environment or location with the experience of a rewarding or aversive stimulus, such as drugs, food, or electric shock. In CPP experiment, mice were first trained to associate one compartment of a box and then, they were placed in the neutral compartment and allowed to freely explore both compartments, and animals' preference for one compartment over the other was measured. After vehicle/Compound 2-2 (10 mg/kg)/Compound 2-3 (10 mg/kg)/Compound 3-3 (10 mg/kg) treatment for 10 mins, the well-trained mice were administrated with cocaine (25 mg/kg, i.p.) for 30 mins. The content of the vehicle is 0.5% DMSO, 25% PEG-300, 4% Tween-80, and 70.5% saline. The locomotion activity experiment was the same as the method of open field test described in Experiment 2.

The subject of series [2] is cocaine conditioned place preference. Description: Conditioned place preference (CPP) test induced by cocaine. It is filed as in vivo, mice. The settings on record: compound 10 mg/kg 10 mins before cocaine 25 mg/kg i.p.; FIG. 12D.
Source text: as §1

The subject of series [3] is lever press induced by cocaine. Briefly: Lever press test (cocaine self-administration). It is filed as in vivo, mice. The following applies: 10 mg/kg intraperitoneally 10 min prior to cocaine self-administration; for cumulative cocaine reinforcements: FIG. 13G; for latency to first response in mice treated with cocaine: FIG. 13H; for lever press frequencies induced by cocaine treatment: FIGS. 13A to 13F. As for the experimental part: Mice were anesthetized with isoflurane (induction and maintenance at 4%-5%) for surgical implantation of a jugular vein catheter connected to a head-mounted entry port. Briefly, the right jugular vein was exposed, and the catheter tubing was inserted and secured to the vein. The catheter was passed under the skin to an incision on the head, and the port was secured to the skull with dental cement anchored by screws. Mice were given buprenorphine (0.05-0.10 mg/kg, intraperitoneal.) for analgesia and allowed to recover for 7-10 days before beginning self-administration. Catheter patency was maintained by daily infusion of 100 μl heparin (120 U/μl) through the catheter and treated with Cefazolin, 200 mg/kg, subcutaneously, to prevent bacterial infections.
The lever press test was done in extra wide mouse operant chambers with a modified top (Med Associates, VT, USA). The chamber contained a retractable lever, a food pellet receptacle connected to a pellet dispenser, with a stimulus light above the pellet receptacle, and contained a house light. Cocaine was delivered by a syringe pump located outside the chamber, and the drug delivery tubing was connected to the mice through a swivel (Instech, Plymouth Meeting, PA, USA) and the swivel arm connected on top of the chamber to allow free movement of the mice during self-administration. All the sessions were remotely operated and recorded by MED-PC V software (Med Associates, VT, USA). Mice were pre-trained with food through pressing the levers and were food-restricted during the study. After training, mice were provided ad libitum access to water and food.
Self-administration sessions took place once daily during the light-dark cycle for 14 consecutive days. Before starting the study, mice were allowed to acclimate to the housing for approximately 3 days. The availability of cocaine reward was indicated by illumination of the house light and pressing levers. […] Each infusion was paired with a cue (1 s illumination of the stimulus green light) followed by a 10-second time-out signaled by turning off the house light. […] Each chamber was operated under a 3-hour session, or until mice received 100 infusions (20 mg/kg) of cocaine (to prevent cocaine overdose). No treatment groups were implanted with a catheter and placed in the operant chambers with identical cues but not connected to the syringe pump and received no reward for pressing the active levers. Vehicle or inhibitor (Compound 2-2, Compound 2-3, or Compound 3-3) with a dosage of 10 mg/kg was injected intraperitoneally for 10 min prior to cocaine self-administration. The content of the vehicle is 0.5% DMSO, 25% PEG-300, 4% Tween-80, and 70.5% saline. Mice met criteria for acquisition of self-administration when they: (1) self-administered at least 30 infusions in a session; (2) >85% of responses were on the active […]; and (3) had no more than 20% variation in number of infusions between sessions. The lever press frequency and number within 3 hours indicate the cocaine addiction symptom.

In another series the target is T1, SIAH1 (Homo sapiens, UniProt Q8IUQ4).
T1 sequence (Q8IUQ4 1-282): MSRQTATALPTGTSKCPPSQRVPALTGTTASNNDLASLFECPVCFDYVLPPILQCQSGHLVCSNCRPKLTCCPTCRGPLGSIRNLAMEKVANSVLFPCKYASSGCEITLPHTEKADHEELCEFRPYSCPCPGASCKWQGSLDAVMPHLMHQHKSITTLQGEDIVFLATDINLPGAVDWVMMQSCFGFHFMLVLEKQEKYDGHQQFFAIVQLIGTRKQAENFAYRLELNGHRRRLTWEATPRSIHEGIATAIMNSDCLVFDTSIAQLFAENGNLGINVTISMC
Briefly: E3-ligase auto ubiquitination assay (K48-linked polyubiquitination of HAUSP mediated by SIAH1). The series is classed as biochemical. The settings on record: 37° C., 1 hour, Western blot with Ub-K48 antibody, compared to vehicle; FIG. 14A, 14B. As for the experimental part:
SIAH1 mediates the K48-linked polyubiquitination of HAUSP. Therefore, for the ubiquitination assay, SIAH1 was incubated in the solution (0.25 mg/1 ml, total 100 μg) containing 20 mM Tris-HCl buffer (pH 8.0), 100 mM NaCl, 1 mM DTT and 40% glycerol and HAUSP (50 μg) was in 50 mM HEPES pH 7.5, 100 mM NaCl, 1 mM TCEP (tris (2-carboxyethyl) phosphine) buffer. […] The E3-ligase auto ubiquitination assay was performed by E3 Ligase Auto-Ubiquitilylation Assay Kit (Abcam, ab139469, UK).

For series [4], the system named is heart rate and blood pressure induced by cocaine. Briefly: Heart rate and blood pressure of cocaine induced mice. The series is classed as in vivo, C57BL/6JNar1 mice. The settings on record: cocaine 25 mg/kg/day i.p. three months, then compound 25 mg/kg/day three months; FIG. 15. As for the experimental part: (§2) C57BL/6JNar1 mice of 6-months age were used in this Experiment. This Experiment included four groups: the normal control group (saline group), the cocaine+saline group, the cocaine+Compound 2-2 group, and the cocaine+Compound 3-3 group. There were 7 mice in the cocaine+Compound 2-2 group and 6 mice each in the rest of the groups. The normal control group received no experimental treatment. […] Heart rate, systolic blood pressure and mean blood pressure of all four groups were measured with a device (MK-2000ST, NP-NIBP Monitor for Mice & Rats, Muromachi, Japan) and the results thereof were shown in FIG. 15. Moreover, the Fr structure of all four groups was measured according to the method of Experiment 7 and the results thereof were shown in FIG. 16 and FIGS. 17A and 17B.

The subject of series [5] is Fasciculus retroflexus (Fr) structure. Briefly: Fr structure of cocaine induced mice after treatment. It is filed as in vivo, C57BL/6JNar1 mice. The following applies: cocaine 25 mg/kg/day i.p. three months, then compound 25 mg/kg/day three months; for length of Fr diminished by cocaine treatment: FIG. 16, 17A; for volume of Fr diminished by cocaine treatment: FIG. 16, 17B. As for the experimental part: as §2

The test system of series [6] is HAUSP levels in SH-SY5Y cells. Briefly: Western blot of HAUSP in cocaine-treated SH-SY5Y cells. The settings on record: cocaine 200 μM with inhibitor, 24 hr; for HAUSP levels decreased by cocaine in SH-SY5Y cells (western blot): FIG. 14C; for relative protein expression ratios of HAUSP normalized with β-actin: quantified with ImageJ, FIG. 14D. For orientation: A western blot detects proteins with antibodies after separation by electrophoresis.

Series [7] concerns Fasciculus retroflexus (Fr) structure. Description: Mouse brain analysis: Fr structure after cocaine treatment. The settings on record: wild-type mice, cocaine 25 mg/kg/day for three months, compared to control wild-type mice.
Procedure: Cocaine treated mice were C57BL/6j mice treated with cocaine at 10 a.m. with a dosage of 25 mg/kg/day for three months while the control mice (Hausp^WT) and Hausp^K444R mice were treated with saline. All mice were housed under conditions of controlled humidity (55±10%) and temperature (22±2° C.), with a reversed light cycle in this experiment.
After the above treatments, all organs were obtained after mouse heart perfusion by saline, and fixed by 4% paraformaldehyde solution for 24 h for H&E, LFB, Silver, Masson's trichrome staining and immunohistochemistry (IHC). Fresh tissues were immediately homogenized in T-PER™ by tissue homogenizer (HT mini homogenizer, OPS Diagnostics LLC, USA) for Western blot analysis.
Mouse brains were processed following SHIELD processing protocol according to Park, Y. G. et al. 2019. Mice were perfused with ice-cold PBS and then with the SHIELD perfusion solution (ice-cold 1× PBS containing 4% (w/v) PFA and GE38 (polyglycerol 3-polyglycidyl ether) supernatant). Collected brains were incubated in the same perfusion solution at 4° C. for two days. […] Images were reconstructed to a multi-channel-z stack using Imaris file converter, and the regions of the whole brain, habenula region were masked and quantified using the surface function in Imaris software version 9.5.

As to `COCCNC(=O)c1ccc(Cl)cc1NC(=O)c1ccccc1C` [Compound 2-2, 4-Chloro-N-(2-methoxyethyl)-2-(2-methylbenzamido) benzamide], the “increased locomotion activity or increased distance traveled induced by cocaine treatment” value in series [1] is listed as “decreased”. The “time spent in cocaine paired compartments (CPP test)” value (“time spent” below) in series [2] is “decreased”. For the same compound, in series [3], the cumulative cocaine reinforcements result is “decreased”, the “latency to first response in mice treated with cocaine” value (from here on “latency to first response”) is on record as “increased” and the “lever press frequencies induced by cocaine treatment” value (“lever press frequencies induced” below) is “decreased”. At SIAH1, the “inhibition of K48-linked polyubiquitination of HAUSP mediated by SIAH1” value (“inhibition” for short) is listed as “can inhibit”. For the same compound, in series [4], the “blood pressure induced by cocaine” value is “decreased” and the “heart rate induced by cocaine” value is “decreased”. Besides, in series [5], the “length of Fr diminished by cocaine treatment” value is “partially rescued” and the “volume of Fr diminished by cocaine treatment” value was “partially rescued”. Besides, in series [6], the “HAUSP levels decreased by cocaine in SH-SY5Y cells (western blot)” value (shortened to “HAUSP levels decreased by cocaine”) was “can restore” and the “relative protein expression ratios of HAUSP normalized with β-actin” value was “can restore”.

`COCCNC(=O)c1ccc(Cl)cc1NC(=O)c1c(C)cc(C)cc1C` [Compound 2-3, N-(5-Chloro-2-((2-methoxyethyl)carbamoyl)phenyl)-2,4,6-trimethylbenzamide]: in series [1], the “increased locomotion activity or increased distance traveled induced by cocaine treatment” value is “decreased”. The “time spent” value in series [2] is reported as “decreased”. For the same compound, in series [3], the cumulative cocaine reinforcements result was “decreased”, the “latency to first response” value is given as “increased” and the “lever press frequencies induced” value is “decreased”. Further, at SIAH1, the “inhibition” value is listed as “can inhibit”. In series [6], the “HAUSP levels decreased by cocaine” value was “can restore” and the “relative protein expression ratios of HAUSP normalized with β-actin” value was “can restore”.

Regarding `COCCNC(=O)c1ccccc1NC(=O)c1c(C)cc(C)cc1C` [Compound 3-3, N-(2-((2-Methoxyethyl)carbamoyl)phenyl)-2,4,6-trimethylbenzamide], in series [1], the “increased locomotion activity or increased distance traveled induced by cocaine treatment” value is reported as “decreased”. Also, the “time spent” value in series [2] is on record as “decreased”. In series [3], the cumulative cocaine reinforcements result is reported as “decreased”, the “latency to first response” value is “increased” and the “lever press frequencies induced” value is given as “decreased”. Further, the “inhibition” value against SIAH1 was “can inhibit”. Also, in series [4], the “blood pressure induced by cocaine” value is listed as “decreased” and the “heart rate induced by cocaine” value is on record as “decreased”. Also, in series [5], the “length of Fr diminished by cocaine treatment” value was “partially rescued” and the “volume of Fr diminished by cocaine treatment” value is “partially rescued”. In series [6], the “HAUSP levels decreased by cocaine” value is reported as “can restore” and the “relative protein expression ratios of HAUSP normalized with β-actin” value is “can restore”.

For `COC(=O)[C@H]1[C@@H](OC(=O)c2ccccc2)C[C@@H]2CC[C@H]1N2C` [cocaine], the “diameter of Fr” value in series [7] (FIG. 10D) is “decreased”. In series [7] (FIG. 10E), the “length of Fr” value is “decreased”.

Values taken from patent publication US20250091982A1, “Pharmaceutical Composition, Methods of Use Thereof for Treating Cocaine Addiction, and Novel Use of Hausp K444R Point Mutant Mouse” (PHARWAR BIOTECHNOLOGY, INC. PTE. LTD., priority 2022, published 2025).
